PMC5681660, “Reduced hepatitis B and D viral entry using clinically applied drugs as novel inhibitors of the bile acid transporter NTCP” (Scientific Reports, 2017)
Structures can show the parent of a compound that is named as a salt. Where two headings read alike, the source gives them in different places.

Legend:
[1] = biological target: T1, human NTCP (Homo sapiens, UniProt Q14973); experiment: Screening taurocholate uptake assay (96-well, [14C]taurocholate, 10 µM drug)
T1 sequence (Q14973 1-349): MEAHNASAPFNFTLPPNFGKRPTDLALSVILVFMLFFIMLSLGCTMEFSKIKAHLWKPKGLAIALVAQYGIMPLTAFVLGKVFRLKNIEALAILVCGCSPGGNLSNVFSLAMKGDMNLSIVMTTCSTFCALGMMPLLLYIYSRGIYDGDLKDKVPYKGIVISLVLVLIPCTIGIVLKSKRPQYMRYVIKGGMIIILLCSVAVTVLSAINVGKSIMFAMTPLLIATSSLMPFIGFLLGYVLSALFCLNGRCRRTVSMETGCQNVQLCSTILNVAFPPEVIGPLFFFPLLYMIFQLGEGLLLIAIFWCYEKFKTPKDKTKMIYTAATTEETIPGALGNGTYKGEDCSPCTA

[2] = biological target: T1, human NTCP; experiment: Screening fluorescent competitive Myrcludex B-FITC binding assay (96-well, 10 µM drug)
[3] = Prestwick library screen, taurocholate uptake, 10 µM drug
[4] = ranking score beside the functional and binding assay B-scores of the screen
[5] = Prestwick library screen, Myrcludex B-FITC binding, 10 µM drug
[6] = combined ranking from functional and binding screening assays
[7] = screen, 10 µM drug, taurocholate uptake
[8] = screen, 10 µM drug, Myrcludex B-FITC binding
[9] = Prestwick library screen, 10 µM drug, B-score of taurocholate uptake
[10] = combined ranking from functional and binding assay B-scores
[11] = Prestwick library screen, 10 µM drug, B-score of Myrcludex B-FITC binding

SMILES: OC(c1cc(C(F)(F)F)nc2c(C(F)(F)F)cccc12)C1CCCCN1 (stereo not drawn) [Mefloquine hydrochloride]
- B-score functional assay [1, 3]: 1.734
- Ranking score [1, 4]: 704.329
- B-score binding assay [2, 5]: -0.336

SMILES: CC1(C)O[C@@H]2C[C@H]3[C@@H]4C[C@H](F)C5=CC(=O)CC[C@]5(C)[C@H]4[C@@H](O)C[C@]3(C)[C@]2(C(=O)CO)O1 [Flurandrenolide]
- Ranking score [1, 6]: 407.676
- B-score functional assay [1, 7]: -0.782
- B-score binding assay [2, 8]: -0.083

SMILES: COc1cc(NS(=O)(=O)c2ccc(N)cc2)ncn1 [Sulfamonomethoxine]
- B-score functional assay [1, 3]: -0.097
- Ranking score [1, 4]: 680.363
- B-score binding assay [2, 5]: 0.362

SMILES: CCOC(=O)[C@H](CCc1ccccc1)N[C@@H](C)C(=O)N1CCC[C@H]1C(=O)O [Enalapril maleate]
- B-score functional assay [1, 3]: 0.08
- Ranking score [1, 4]: 705.002
- B-score binding assay [2, 5]: 0.03

SMILES: Cn1c(=O)c2c(ncn2C)n(C)c1=O [Caffeine]
- B-score functional assay [1, 3]: 0.363
- Ranking score [1, 4]: 818.709
- B-score binding assay [2, 5]: 0.154

SMILES: CC/C(=C(\c1ccccc1)c1ccc(OCCN(C)C)cc1)c1ccccc1 [Tamoxifen citrate]
- B-score functional assay [1, 3]: 0.142
- Ranking score [1, 4]: 732.268
- B-score binding assay [2, 5]: 0.04

SMILES: O=C(N/N=C/c1ccc([N+](=O)[O-])o1)c1ccc(O)cc1 [Nifuroxazide]
- B-score functional assay [1, 9]: 2.774
- Ranking score [1, 10]: 1088.47
- B-score binding assay [2, 11]: 0.661

SMILES: COc1ccc2c(c1)c(CC(=O)OCC(=O)O)c(C)n2C(=O)c1ccc(Cl)cc1 [Acemetacin]
- B-score functional assay [1, 3]: 0.011
- Ranking score [1, 4]: 813.791
- B-score binding assay [2, 5]: 0.865

SMILES: C[C@]12CC[C@H](O)C[C@@H]1CC[C@@H]1[C@@H]2CC[C@]2(C)C(=O)CC[C@@H]12 [Epiandrosterone]
- B-score functional assay [1]: 2.177
- Ranking score [1]: 1232.82
- B-score binding assay [2]: 2.961

SMILES: CC(C)NC[C@@H](O)COc1cccc2ccccc12.Cl [(R)-Propranolol hydrochloride]
- B-score functional assay [1]: 1.016
- Ranking score [1]: 935.855
- B-score binding assay [2]: 0.252

SMILES: CC(=O)O[C@H]1CC[C@@]2(C)C(=CC[C@@H]3[C@@H]2CC[C@]2(C)C(=O)CC[C@@H]32)C1 [Dehydroisoandosterone 3-acetate]
- Ranking score [1, 6]: 438.862
- B-score functional assay [1, 7]: 0.002
- B-score binding assay [2, 8]: -0.747

SMILES: CC(=O)Oc1cc(C(C)C)c(OCCN(C)C)cc1C.Cl [Moxisylyte hydrochoride]
- Ranking score [1, 6]: 375.319
- B-score functional assay [1, 7]: -0.84
- B-score binding assay [2, 8]: -0.183

SMILES: CC(=O)OCC(=O)[C@@]1(O)CC[C@H]2[C@@H]3CCC4=CC(=O)CC[C@]4(C)[C@@]3(F)[C@@H](O)C[C@@]21C [Fludrocortisone acetate]
- Ranking score [1, 6]: 430.869
- B-score functional assay [1, 7]: 0.011
- B-score binding assay [2, 8]: -0.826

SMILES: CCn1cc(C(=O)O)c(=O)c2cc(F)c(N3CCNCC3)cc21 [Norfloxacin]
- B-score functional assay [1, 3]: -0.135
- Ranking score [1, 4]: 788.093
- B-score binding assay [2, 5]: 2.084

SMILES: O=C(NCC(O)CO)c1c(I)c(C(=O)NCC(O)CO)c(I)c(N(CCO)C(=O)CO)c1I (stereo not drawn) [Ioversol]
- B-score functional assay [1]: 1.843
- Ranking score [1]: 1044.38
- B-score binding assay [2]: 0.541

SMILES: Cn1c(=O)c2c(ncn2CC(O)CO)n(C)c1=O (stereo not drawn) [Diprophylline]
- B-score functional assay [1, 3]: -0.019
- Ranking score [1, 4]: 816.025
- B-score binding assay [2, 5]: 1.219

SMILES: CC(C)(C)NC[C@H](O)c1ccc(O)c(CO)c1 [Levalbuterol hydrochloride]
- B-score functional assay [1, 9]: 0.334
- Ranking score [1, 10]: 962.353
- B-score binding assay [2, 11]: 1.242

SMILES: C[C@@H]1CN([C@H]2CC[C@](C#N)(c3ccc(F)cc3)CC2)CC[C@]1(C(=O)O)c1ccccc1 [Levocabastine hydrochloride]
- B-score functional assay [1, 3]: -0.031
- Ranking score [1, 4]: 801.329
- B-score binding assay [2, 5]: 1.175

SMILES: CCN(CC)CCCC(C)Nc1ccnc2cc(Cl)ccc12 (stereo not drawn) [Chloroquine diphosphate]
- B-score functional assay [1]: 0.222
- Ranking score [1]: 726.833
- B-score binding assay [2]: 0.002

SMILES: C[C@]12Cc3c[nH]nc3C[C@@H]1CC[C@@H]1[C@@H]2CC[C@@]2(C)[C@H]1CC[C@]2(C)O [Stanozolol]
- B-score functional assay [1]: -1.951
- Ranking score [1]: 107.121
- B-score binding assay [2]: -2.248
